Assays:
[1] = tested on: S. aureus; assay: microbe, parasite or virus in culture; details: Staphylococcus aureus, read-out: S. aureus MIC μg mL-1
Protocol: (§1) The in vitro antibacterial activity of the synthesized Ag(I) complexes was investigated against two bacterial strains: Gram (+) S. aureus and the Gram (−) E. coli. The assays were conducted using the broth microdilution method to determine both the half-maximal inhibitory concentrations (IC50) and minimal inhibitory concentrations (MIC).

[2] = tested on: S. aureus; assay: microbe, parasite or virus in culture; details: Staphylococcus aureus, read-out: S. aureus IC50 μg mL-1
Protocol: as §1

[3] = tested on: E. coli; assay: microbe, parasite or virus in culture; details: Escherichia coli, read-out: E. coli IC50 μg mL-1
Protocol: as §1

[4] = biological target: T1, thioredoxin reductase (TrxR) (Escherichia coli, UniProt P0A9P4); assay: enzyme inhibition assay with pure E. coli TrxR; format: biochemical
T1 construct: gene trxB
T1 sequence (P0A9P4 2-321): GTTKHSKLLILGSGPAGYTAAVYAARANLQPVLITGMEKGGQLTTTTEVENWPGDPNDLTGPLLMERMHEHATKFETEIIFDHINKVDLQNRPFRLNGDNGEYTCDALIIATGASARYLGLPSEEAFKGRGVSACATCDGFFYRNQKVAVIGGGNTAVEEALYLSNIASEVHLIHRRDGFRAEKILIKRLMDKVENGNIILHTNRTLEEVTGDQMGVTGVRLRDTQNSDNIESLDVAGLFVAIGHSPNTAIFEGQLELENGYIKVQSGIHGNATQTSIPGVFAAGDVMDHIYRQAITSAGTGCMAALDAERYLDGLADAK

[5] = biological target: T2, glutathione reductase (GR) (Escherichia coli, UniProt A0A0H3JIZ9); assay: enzyme inhibition assay with pure E. coli GR; format: biochemical
T2 construct: gene gor
T2 sequence (A0A0H3JIZ9 entry or part of it): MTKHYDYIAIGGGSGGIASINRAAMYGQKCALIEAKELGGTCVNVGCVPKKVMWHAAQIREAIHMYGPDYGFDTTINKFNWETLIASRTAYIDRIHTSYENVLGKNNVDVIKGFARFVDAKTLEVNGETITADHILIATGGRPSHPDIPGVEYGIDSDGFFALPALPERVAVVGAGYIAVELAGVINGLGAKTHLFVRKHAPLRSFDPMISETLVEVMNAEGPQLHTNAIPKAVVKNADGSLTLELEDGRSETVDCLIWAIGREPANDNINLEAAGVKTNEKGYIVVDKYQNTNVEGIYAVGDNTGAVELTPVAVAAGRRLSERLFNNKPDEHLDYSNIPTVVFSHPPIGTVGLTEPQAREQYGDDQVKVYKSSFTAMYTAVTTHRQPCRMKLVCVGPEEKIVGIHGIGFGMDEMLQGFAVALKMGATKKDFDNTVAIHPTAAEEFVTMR

Row | Compound | MIC [1] | IC50 [2] | IC50 [3] | IC50 [4] | IC50 [5]
1 | c1ccc(P(c2ccccc2)c2ccccc2Oc2ccccc2P(c2ccccc2)c2ccccc2)cc1 [DPEPhos, bis[(2-diphenylphosphino)phenyl]ether] | > 100 µg/mL | > 100 µg/mL | > 100 µg/mL |  | 
2 | c1ccc(P(c2ccccc2)c2ccccc2)cc1 [PPh3, thriphenylphosphine] | > 100 µg/mL | > 100 µg/mL | > 100 µg/mL |  | 
3 | O=c1[nH]c(=S)[nH]c2ccccc12 [mqztH, 2-mercapto-4(3H)-quinazolinone] | > 100 µg/mL | > 100 µg/mL | > 100 µg/mL |  | 
4 | [AgCl(mqztH)(PPh3)2] [compound 1] |  |  |  | 215 nM | 65 nM
